According to publication PMC4723269 (Archives of biochemistry and biophysics, 2015):

Target: T1, Mtm1p (YGR257cp) (Saccharomyces cerevisiae, UniProt P53320)
T1 sequence (P53320 1-366): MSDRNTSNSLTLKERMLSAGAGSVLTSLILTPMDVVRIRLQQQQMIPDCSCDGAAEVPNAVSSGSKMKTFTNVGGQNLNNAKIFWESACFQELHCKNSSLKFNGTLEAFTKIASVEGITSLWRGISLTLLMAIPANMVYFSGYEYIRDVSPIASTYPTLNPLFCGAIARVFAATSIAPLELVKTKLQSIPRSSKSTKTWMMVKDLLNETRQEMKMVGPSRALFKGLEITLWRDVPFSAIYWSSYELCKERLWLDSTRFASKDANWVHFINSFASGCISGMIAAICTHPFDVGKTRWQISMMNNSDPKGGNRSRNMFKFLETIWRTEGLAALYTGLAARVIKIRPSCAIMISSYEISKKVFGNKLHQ
Assay: stoichiometric tryptophan fluorescence quenching titration
Format: binding

## Cc1ncc(COP(=O)(O)O)c(C=O)c1O [PLP, pyridoxal 5′-phosphate]
  Kd: 1.9 ± 0.3 µM
